Experimental data taken from US11319347B2, “Peptide compound and method for producing same, composition for screening use, and method for selecting peptide compound” (FUJIFILM Corporation, priority 2017, dated 2022).
Starred links: 1 amine or outer side, 2 acyl side, 3 side chain; linkers in the order of their positions; H or OH if unused. Positions of bridges follow the written chain, without caps; N, C: chain ends. Non-standard residues stand in square brackets, D forms with d. Residues, ends and D or L forms follow the SMILES beside them. ξ: configuration not given here. 2Pal(6-thiazolin-2-yl-4R-CO) = O=C([C@H](Cc1cccc(C2=N[C@H](C(=O)[*:3])CS2)n1)N[*:1])[*:2]; Phe(3-(4R-CO-2-thiazolinyl)) = O=C([C@H](Cc1cccc(C2=N[C@H](C(=O)[*:3])CS2)c1)N[*:1])[*:2]; dCha = N[C@H](CC1CCCCC1)C(=O)O; ξL = CC(C)CC(N)C(=O)O

What was measured:
[1] = Metabolic stability of cyclic peptides in human liver microsomes (HLM residual rate); assay type: in vitro ADME; conditions: 1 μmol/L, human liver microsomes 0.5 mg protein/mL, 37° C., 20 minutes, NADPH and UDPGA
Protocol: Test of metabolic stability of cyclic peptide in human liver microsome
An experiment using human liver microsomes (HLMs) was carried out in order to compare and examine the metabolic stability of the synthesized cyclic peptides.
The compound with a final concentration of 1 μmol/L was incubated in human liver microsomes (BD Cat #452117) prepared to a final concentration of 0.5 mg protein/mL using 100 mmol/L phosphate buffer (pH 7.4) at 37° C. for 20 minutes in the presence of reduced nicotinamide adenine dinucleotide phosphate (NADPH) and uridine 5′-diphosphate-α-D-glucuronic acid (UDPGA). Deproteinization treatment with acetonitrile was carried out, the amount of unaltered substance remaining was quantified using LC/MS/MS, and the residual rate (%) in 20 minutes was calculated. The HLM residual rate (%) obtained by this method is described in the following table.
(§1) Evaluation standards are as follows.

[2] = Membrane permeability of synthesized cyclic peptides by PAMPA (Measurement Method A: 1 μmol/L; Method B: 10 μmol/L); assay type: in vitro ADME; conditions: 25° C., 4 hours
Protocol: Evaluation of membrane permeability of synthesized cyclic peptide by PAMPA method In order to compare and examine the membrane permeability of the synthesized cyclic peptide, parallel artificial membrane permeability assay (PAMPA) was carried out.
An artificial phospholipid membrane was produced by adding 5 μL of a phospholipid organic solvent solution consisting of L-α-phosphatidylcholine (Avanti Polar Lipids, Inc., Cat. 840051P, 1.67%), 1,2-dioleoyl-sn-glycero-3-phospho-L-serine (Avanti Polar Lipids, Inc., Cat. 840035P, 0.33%), and n-dodecane special grade (Wako Pure Chemical Industries, Ltd., 047-21612)/1-octanol reagent special grade (Kanto Chemical Co., Inc., Cat. 31013-08)=10:1 to Filter Plate (Merck Millipore Corporation, Cat. MAIPN4550).
475 μL of 50 mmol/L potassium phosphate buffer (KPB, pH 7.4 or pH 6.5) was added to 25 μL of a DMSO solution containing the compound at a concentration of 20 μmol/L, so that the compound was diluted to a final concentration of 1 μmol/L. 300 μL of the compound solution was added to the lower side (donor side) of PAMPA 96-well plate (Filter Plate (Merck Millipore Corporation, Cat. MAIPN4550)) with an artificial phospholipid membrane being interposed therebetween. 200 μL of 5% DMSO KPB (pH 7.4) was added to the upper side (acceptor side) with the artificial phospholipid membrane being interposed therebetween. A permeation test through an artificial phospholipid membrane was carried out at 25° C. for 4 hours. The compound concentration in the solution in the donor plate and the acceptor plate was measured by LC/MS/MS, and the membrane permeation rate (Pe) of the compound was calculated from the following formula, assuming that C0 is an initial compound concentration in donor solution, t is a test time, A is a membrane filter area=0.3 cm^2, VD is a donor solution amount=300 μL, VA is an acceptor solution amount=200 μL, and CD(t) is a compound concentration in donor solution at time t, CA(t) is a compound concentration in acceptor solution at time t, and Cequilibrium=[CD(t)*VD+CA(t)*VA]/(VD+VA).
475 μL of 50 mmol/L potassium phosphate buffer (KPB, pH 7.4 or pH 6.5) was added to 25 μL of a DMSO solution containing the compound at a concentration of […], so that the compound was diluted to a final concentration of 10 μmol/L. The compound solution was added 300 μL each to the lower side (donor side) of an artificial phospholipid membrane of PAMPA 96-well plate (Filter Plate (Merck Millipore Corporation, Cat. MAIPN4550)). 200 μL of 5% DMSO KPB (pH 7.4) was added to the upper side (acceptor side) with the artificial phospholipid membrane being interposed therebetween. A permeation test through an artificial phospholipid membrane was carried out at 25° C. for 4 hours. The compound concentration in the solution in the donor plate and the acceptor plate was measured by LC/MS/MS, and the membrane permeation rate (Pe) of the compound was calculated from the following formula, assuming that Co is an initial compound concentration in donor solution, t is a test time, A is a membrane filter area=0.3 cm^2, VD is a donor solution amount=300 μL, VA is an acceptor solution amount=200 μL, and CD(t) is a compound concentration in donor solution at time t, CA(t) is a compound concentration in acceptor solution at time t, and Cequilibrium=[CD(t)*VD+CA(t)*VA]/(VD+VA).
The membrane permeability (Pe(10^−6 cm/s)) obtained by this method is described in the following table.
as §1

[3] = Measurement method B (10 μmol/L)

Row | SMILES | Pe(10^−6 cm/sec) ([2]; Measurement method A) | also measured
1 | N=C(N)NCCC[C@@H]1NC(=O)[C@H](Cc2c[nH]c3ccccc23)NC(=O)[C@@H](CC2CCCCC2)NC(=O)[C@@H]2CCCN2C(=O)[C@@H]2CSC(=N2)c2cc(ccn2)C[C@@H](C(N)=O)NC1=O [2-8] |  | HLM residual rate [1]: +++ (60%<HLM residual rate (%))
2 | N=C(N)NCCC[C@@H]1NC(=O)[C@H](Cc2c[nH]c3ccccc23)NC(=O)[C@@H](CC2CCCCC2)NC(=O)[C@@H]2CCCN2C(=O)[C@@H]2CSC(=N2)c2cccc(n2)C[C@@H](C(N)=O)NC1=O [2-9] (P[dCha]WR[2Pal(6-thiazolin-2-yl-4R-CO)]-NH2; lactam N-5) |  | HLM residual rate [1]: +++ (60%<HLM residual rate (%))
3 | N=C(N)NCCC[C@@H]1NC(=O)[C@H](Cc2c[nH]c3ccccc23)NC(=O)[C@@H](CC2CCCCC2)NC(=O)[C@@H]2CCCN2C(=O)[C@@H]2CSC(=N2)c2cnc(cn2)C[C@@H](C(N)=O)NC1=O [2-13] |  | HLM residual rate [1]: +++ (60%<HLM residual rate (%))
4 | N=C(N)NCCC[C@@H]1NC(=O)[C@H](Cc2c[nH]c3ccccc23)NC(=O)[C@@H](CC2CCCCC2)NC(=O)[C@@H]2CCCN2C(=O)[C@@H]2CSC(=N2)c2cncc(n2)C[C@@H](C(N)=O)NC1=O [2-14] |  | HLM residual rate [1]: +++ (60%<HLM residual rate (%))
5 | C[C@@]12CSC(=N1)c1cc(cs1)C[C@@H](C(N)=O)NC(=O)[C@H](CCCNC(=N)N)NC(=O)[C@H](Cc1c[nH]c3ccccc13)NC(=O)[C@@H](CC1CCCCC1)NC(=O)C1CCCN1C2=O (stereo partly shown) [a-1-1] | +++ (0.5<Pe (10^−6 cm/s)) | 
6 | N=C(N)NCCC[C@@H]1NC(=O)[C@H](Cc2c[nH]c3ccccc23)NC(=O)[C@@H](CC2CCCCC2)NC(=O)[C@@H]2CCCN2C(=O)[C@@H]2CSC(=N2)c2cn(nn2)C[C@@H](C(N)=O)NC1=O [a-1-2] | ++ (0.2<Pe (10^−6 cm/s)≤0.5) | 
7 | Cn1nc2c3cc(ccc31)C[C@@H](C(N)=O)NC(=O)[C@H](CCCNC(=N)N)NC(=O)[C@H](Cc1c[nH]c3ccccc13)NC(=O)[C@@H](CC1CCCCC1)NC(=O)[C@@H]1CCCN1C(=O)[C@@H]1CSC2=N1 [a-1-3] | +++ (0.5<Pe (10^−6 cm/s)) | 
8 | Cn1ccc2cc3c(nc21)C1=N[C@@H](CS1)C(=O)N1CCC[C@H]1C(=O)N[C@H](CC1CCCCC1)C(=O)N[C@@H](Cc1c[nH]c2ccccc12)C(=O)N[C@@H](CCCNC(=N)N)C(=O)N[C@H](C(N)=O)C3 [a-1-4] | +++ (0.5<Pe (10^−6 cm/s)) | 
9 | N=C(N)NCCC[C@@H]1NC(=O)[C@H](Cc2c[nH]c3ccccc23)NC(=O)[C@@H](CC2CCCCC2)NC(=O)[C@@H]2CCCN2C(=O)[C@@H]2CSC(=N2)c2cn(cn2)-c2ccc(cc2)C[C@@H](C(N)=O)NC1=O [a-1-5] |  | Pe(10^−6 cm/sec) [2, 3]: ++ (0.2<Pe (10^−6 cm/s)≤0.5)
10 | N=C(N)NCCC[C@@H]1NC(=O)[C@H](Cc2c[nH]c3ccccc23)NC(=O)[C@@H](CC2CCCCC2)NC(=O)[C@@H]2CCCN2C(=O)[C@@H]2CSC(=N2)c2cc(on2)C[C@@H](C(N)=O)NC1=O [a-1-6] | +++ (0.5<Pe (10^−6 cm/s)) | 
11 | N=C(N)NCCC[C@@H]1NC(=O)[C@H](Cc2c[nH]c3ccccc23)NC(=O)[C@@H](CC2CCCCC2)NC(=O)[C@@H]2CCCN2C(=O)[C@@H]2CSC(=N2)c2ccc(cn2)OCCOCCOCCOCCOc2ccc(cc2)C[C@@H](C(N)=O)NC1=O [a-1-8] | +++ (0.5<Pe (10^−6 cm/s)) | 
12 | N=C(N)NCCC[C@@H]1NC(=O)[C@H](Cc2c[nH]c3ccccc23)NC(=O)[C@@H](CC2CCCCC2)NC(=O)[C@@H]2CCCN2C(=O)[C@@H]2CSC(=N2)c2ccc(s2)C(=O)NCCOCCOCCOCCOc2ccc(cc2)C[C@@H](C(N)=O)NC1=O [a-1-9] | +++ (0.5<Pe (10^−6 cm/s)) | 
13 | N=C(N)NCCC[C@@H]1NC(=O)[C@H](Cc2c[nH]c3ccccc23)NC(=O)[C@@H](CC2CCCCC2)NC(=O)[C@@H]2CCCN2C(=O)[C@@H]2CSC(=N2)c2coc(n2)-c2csc(n2)C[C@@H](C(N)=O)NC1=O [a-1-10] | +++ (0.5<Pe (10^−6 cm/s)) | 
14 | N=C(N)NCCC[C@@H]1NC(=O)[C@H](Cc2c[nH]c3ccccc23)NC(=O)[C@@H](CC2CCCCC2)NC(=O)[C@@H]2CCCN2C(=O)[C@@H]2CSC(=N2)c2csc(n2)-c2csc(n2)C[C@@H](C(N)=O)NC1=O [a-1-11] | +++ (0.5<Pe (10^−6 cm/s)) | 
15 | N=C(N)NCCC[C@@H]1NC(=O)[C@H](Cc2c[nH]c3ccccc23)NC(=O)[C@@H](CC2CCCCC2)NC(=O)[C@@H]2CCCN2C(=O)[C@@H]2CSC(=N2)c2cn3c(cccc3n2)C[C@@H](C(N)=O)NC1=O [a-1-12] | +++ (0.5<Pe (10^−6 cm/s)) | 
16 | N=C(N)NCCC[C@@H]1NC(=O)[C@H](Cc2c[nH]c3ccccc23)NC(=O)[C@@H](CC2CCCCC2)NC(=O)[C@@H]2CCCN2C(=O)[C@@H]2CSC(=N2)c2cn3cc(ncc3n2)-c2cccc(c2)C[C@@H](C(N)=O)NC1=O [a-1-14] |  | Pe(10^−6 cm/sec) [2, 3]: +++ (0.5<Pe (10^−6 cm/s))
17 | N=C(N)NCCC[C@@H]1NC(=O)[C@H](Cc2c[nH]c3ccccc23)NC(=O)[C@@H](CC2CCCCC2)NC(=O)[C@@H]2CCCN2C(=O)[C@@H]2CSC(=N2)c2cn3nc(ccc3n2)-c2cccc(c2)C[C@@H](C(N)=O)NC1=O [a-1-15] |  | Pe(10^−6 cm/sec) [2, 3]: ++ (0.2<Pe (10^−6 cm/s)≤0.5)
18 | N=C(N)NCCC[C@@H]1NC(=O)[C@H](Cc2c[nH]c3ccccc23)NC(=O)[C@@H](CC2CCCCC2)NC(=O)[C@@H]2CCCN2C(=O)[C@@H]2CSC(=N2)c2cn3cc(cnc3n2)-c2cccc(c2)C[C@@H](C(N)=O)NC1=O [a-1-16] |  | Pe(10^−6 cm/sec) [2, 3]: ++ (0.2<Pe (10^−6 cm/s)≤0.5)
19 | N=C(N)NCCC[C@@H]1NC(=O)[C@H](Cc2c[nH]c3ccccc23)NC(=O)[C@@H](CC2CCCCC2)NC(=O)[C@@H]2CCCN2C(=O)[C@@H]2CSC(=N2)c2ccc(cc2)[C@@H](C(N)=O)NC1=O [a-1-19] | +++ (0.5<Pe (10^−6 cm/s)) | 
20 | CC(C)C[C@@H]1NC(=O)[C@@H]2CSC(=N2)c2cccc(c2)C[C@@H](C(N)=O)NC(=O)[C@H](CC(C)C)NC(=O)[C@H](C)NC(=O)[C@H](Cc2ccccc2)NC(=O)[C@H](C)NC(=O)[C@@H]2CCCN2C(=O)[C@H](C)NC(=O)[C@H](CC(C)C)NC(=O)[C@H](CC(C)C)NC(=O)[C@@H]2CCCN2C(=O)[C@H](CC(C)C)NC(=O)[C@H](CCCNC(=N)N)NC(=O)[C@H](CC(C)C)NC1=O [a-3-1] (LLRLPLLAPAFAL[Phe(3-(4R-CO-2-thiazolinyl))]-NH2; lactam N-14) |  | Pe(10^−6 cm/sec) [2, 3]: +++ (0.5<Pe (10^−6 cm/s))
21 | CC(C)C[C@@H]1NC(=O)[C@@H]2CSC(=N2)c2cccc(c2)C[C@@H](C(=O)N[C@@H](C)C(=O)N[C@@H](CC(C)C)C(=O)N[C@@H](Cc2ccccc2)C(=O)N[C@@H](CC(C)C)C(=O)N[C@@H](C)C(N)=O)NC(=O)[C@@H]2CCCN2C(=O)[C@H](CCCCN)NC1=O [a-3-2] (LKP[Phe(3-(4R-CO-2-thiazolinyl))]ALFLA-NH2; lactam N-4) | ++ (0.2<Pe (10^−6 cm/s)≤0.5) | 
22 | CC(=O)N[C@H]1CCCCNC(=O)[C@@H]2CSC(=N2)c2cccc(c2)C[C@@H](C(N)=O)NC(=O)[C@H](C)NC(=O)C(CC(C)C)NC(=O)[C@H](CCCCN)NC(=O)[C@H](CC(C)C)NC(=O)[C@H](C)NC(=O)[C@H](CC(C)C)NC1=O (stereo partly drawn) [a-4-1] (Ac-KLALK[ξL]A[Phe(3-(4R-CO-2-thiazolinyl))]-NH2; lactam 1-8) |  | Pe(10^−6 cm/sec) [2, 3]: + (0.01<Pe (10^−6 cm/s)≤0.2)
